{"source": "paper PMC10408038", "about": "(Journal of medicinal chemistry, 2022)", "key": {"[1]": {"test_system": "NCI-H522 cells", "test": "Cell viability assay", "conditions": "for Fold Change: ratio of IC50 (HCT-116)/ IC50 (NCI-H522); for fold increase of IC50 in the presence of Liproxstatin-1: NCI-H522, Liproxstatin-1 (0.25 μM); for IC50: cell line not given"}, "[2]": {"test_system": "NCI-H522 cells", "test": "C11-BODIPY lipid peroxidation assay", "assay_type": "cell-based", "conditions": "3 h or 6 h treatment"}, "[3]": {"test_system": "NCI-H522 cells", "test": "Liproxstatin-1 rescue experiments", "assay_type": "cell-based", "conditions": "for rescue of cytotoxicity by Liproxstatin-1: compound at 2–3 times the IC50, Liproxstatin-1 0.25 μM"}, "[4]": {"test_system": "NCI-H522 cells", "test": "In-gel fluorescence labeling competition with probe", "assay_type": "cell-based", "conditions": "competitor 20 μM"}, "[5]": {"test": "NMR kinetic study of thiol addition", "assay_type": "physicochemical", "conditions": "DMSO-d6"}, "[6]": {"test_system": "NCI-H522 cells", "test": "Incubation time50", "assay_type": "cell-based", "conditions": "RSL3 0.5 μM, 45 2 μM"}, "[7]": {"target": "T1, GSTO1 (Homo sapiens, UniProt P78417)", "T1 sequence (P78417 1-241)": "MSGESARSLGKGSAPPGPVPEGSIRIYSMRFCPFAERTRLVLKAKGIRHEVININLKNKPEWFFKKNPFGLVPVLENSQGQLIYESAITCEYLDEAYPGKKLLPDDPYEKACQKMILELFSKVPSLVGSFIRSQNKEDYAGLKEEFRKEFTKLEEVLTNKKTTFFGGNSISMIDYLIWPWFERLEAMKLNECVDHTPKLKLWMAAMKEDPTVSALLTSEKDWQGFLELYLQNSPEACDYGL", "test": "Pulldown with Biotin-TAMRA and western blot analysis, GSTO1", "assay_type": "cell-based", "conditions": "NCI-H522; probe 10 μM; western blot"}, "[8]": {"target": "T2, GPX4 (Homo sapiens, UniProt P36969)", "T2 sequence (P36969 28-197 limits assumed)": "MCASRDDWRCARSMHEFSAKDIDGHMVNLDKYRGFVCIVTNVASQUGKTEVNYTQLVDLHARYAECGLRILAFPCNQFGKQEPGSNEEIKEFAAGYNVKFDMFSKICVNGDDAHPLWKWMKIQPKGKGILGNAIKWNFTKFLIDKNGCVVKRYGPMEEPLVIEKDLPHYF", "test": "Pulldown with Biotin-TAMRA and western blot analysis, GPX4", "assay_type": "cell-based", "conditions": "NCI-H522; probe 10 μM; western blot"}, "[9]": {"target": "T3, TXRD1 (Homo sapiens, UniProt Q16881)", "T3 sequence (Q16881 151-649 limits assumed)": "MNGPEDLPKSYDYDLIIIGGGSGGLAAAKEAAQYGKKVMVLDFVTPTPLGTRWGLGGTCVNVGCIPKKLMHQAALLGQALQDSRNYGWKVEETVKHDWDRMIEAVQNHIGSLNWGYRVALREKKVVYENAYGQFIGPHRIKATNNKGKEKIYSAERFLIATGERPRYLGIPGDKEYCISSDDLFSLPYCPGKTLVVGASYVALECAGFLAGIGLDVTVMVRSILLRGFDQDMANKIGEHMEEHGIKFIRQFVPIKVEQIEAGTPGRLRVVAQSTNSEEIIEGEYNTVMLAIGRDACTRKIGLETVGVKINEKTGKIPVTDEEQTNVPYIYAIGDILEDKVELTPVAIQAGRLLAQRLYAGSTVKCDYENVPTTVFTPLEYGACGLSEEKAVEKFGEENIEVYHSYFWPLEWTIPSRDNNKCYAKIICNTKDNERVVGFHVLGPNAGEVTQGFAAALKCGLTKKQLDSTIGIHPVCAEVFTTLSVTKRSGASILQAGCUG", "test": "Pulldown with Biotin-TAMRA and western blot analysis, TXRD1", "assay_type": "cell-based", "conditions": "NCI-H522; western blot"}, "[10]": {"conditions": "in the presence of DABCO, N-Boc-cysteine methyl ester 10 equiv."}}}
{"molecule": "2-ethynyl-N-(4-methoxyphenyl)thiazole-5-carboxamide [Compound 8]", "values": [{"measurement": "Fold Change", "setting": "[1]", "value": 12.52}]}
{"molecule": "2-ethynyl-N-phenylthiazole-5-carboxamide [Compound 9]", "values": [{"measurement": "Fold Change", "setting": "[1]", "value": 7.39}]}
{"molecule": "C#Cc1nc(C(=O)N2CCN(C(c3ccc(Cl)cc3)c3ccc(Cl)cc3)CC2)cs1", "note": "[BCP-T.A, (4-(bis(4-chlorophenyl)methyl)piperazin-1-yl)(2-ethynylthiazol-4-yl)methanone]", "values": [{"measurement": "C11-Bodipy oxidation (lipid peroxide levels) versus DMSO", "setting": "[2]", "value": "increases lipid peroxides"}, {"measurement": "rescue of cytotoxicity by Liproxstatin-1", "setting": "[3]", "value": "rescues cells"}, {"measurement": "fold increase of IC50 in the presence of Liproxstatin-1", "setting": "[1]", "value": "approximately 500 fold"}]}
{"molecule": "C#CC1=Nc2ccccc2C(C)(C)O1", "note": "[Compound 2, 2-ethynyl-4,4-dimethyl-4H-benzo[d][1,3]oxazine, reference compound]", "values": [{"measurement": "competition with probe (65) labeling", "setting": "[4]", "value": "high competition"}, {"measurement": "rescue of cytotoxicity by Liproxstatin-1", "setting": "[3]", "value": "significant rescue"}]}
{"molecule": "C#Cc1nc(C(=O)OCC)cs1", "note": "[Compound 22, ethyl 2-ethynylthiazole-4-carboxylate]", "values": [{"measurement": "half-life (t1/2) of thiol addition", "setting": "[5]; in the absence of DABCO", "value": 4.43, "unit": "h"}, {"measurement": "half-life (t1/2) of thiol addition", "setting": "[5]; [10]", "value": 0.315, "unit": "h"}, {"measurement": "cells rescued by Liproxstatin-1", "setting": "[3]; (22) 10 μM, Liproxstatin-1 0.25 μM", "value": 100, "unit": "%"}]}
{"molecule": "Cn1c(I)nc2ccccc21", "note": "[Compound 31, 2-iodo-1-methyl-1H-benzo[d]imidazole]", "values": [{"measurement": "C11-Bodipy oxidation (lipid peroxide levels) versus DMSO", "setting": "[2]", "value": "indistinguishable from the corresponding DMSO treatment"}, {"measurement": "rescue of cytotoxicity by Liproxstatin-1", "setting": "[3]", "value": "kill NCI-H522 cells at the same rates both in the absence and presence of Liproxstatin-1"}]}
{"molecule": "C=Cc1nc2ccccc2n1C", "note": "[Compound 39, 1-methyl-2-vinyl-1H-benzo[d]imidazole]", "values": [{"measurement": "C11-Bodipy oxidation (lipid peroxide levels) versus DMSO", "setting": "[2]", "value": "marginally increase C11-Bodipy oxidation"}, {"measurement": "rescue of cytotoxicity by Liproxstatin-1", "setting": "[3]", "value": "kill NCI-H522 cells at the same rates both in the absence and presence of Liproxstatin-1"}]}
{"molecule": "C=Cc1nc2ccccc2[se]1", "note": "[Compound 42, 2-vinylbenzo[d][1,3]selenazole]", "values": [{"measurement": "C11-Bodipy oxidation (lipid peroxide levels) versus DMSO", "setting": "[2]", "value": "marginally increase C11-Bodipy oxidation"}]}
{"molecule": "C#Cc1nc2ccccc2s1", "note": "[Compound 45, 2-ethynylbenzo[d]thiazole]", "values": [{"measurement": "competition with probe (65) labeling", "setting": "[4]", "value": "high competition"}, {"measurement": "incubation time after which cells cannot be rescued by washing off the drug", "setting": "[6]", "value": "1 to 2", "unit": "h"}, {"measurement": "half-life (t1/2) of thiol addition", "setting": "[5]; in the absence of DABCO", "value": "> 6", "unit": "h"}, {"measurement": "half-life (t1/2) of thiol addition", "setting": "[5]; [10]", "value": "< 0.083", "unit": "h"}]}
{"molecule": "C#CCNC1CCC(c2csc(C#C)n2)=C1C", "note": "(stereo not drawn) [Compound 64, 3-(2-ethynylthiazol-4-yl)-2-methyl-N-(prop-2-yn-1-yl)cyclopent-2-en-1-amine]", "values": [{"measurement": "C11-Bodipy oxidation (lipid peroxide levels) versus DMSO", "setting": "[2]", "value": "increased levels of lipid peroxides"}, {"measurement": "rescue of cytotoxicity by Liproxstatin-1", "setting": "[3]", "value": "significant rescue"}]}
{"molecule": "C#CCNC(=O)c1csc(C#C)n1", "note": "[Compound 65, 2-ethynyl-N-(prop-2-yn-1-yl)thiazole-4-carboxamide]", "values": [{"measurement": "enrichment of GSTO1 in pulldown", "setting": "[7]", "value": "selectively enriched"}, {"measurement": "C11-Bodipy oxidation (lipid peroxide levels) versus DMSO", "setting": "[2]", "value": "increased levels of lipid peroxides"}, {"measurement": "rescue of cytotoxicity by Liproxstatin-1", "setting": "[3]", "value": "significant rescue"}, {"measurement": "enrichment of GPX4 in pulldown", "setting": "[8]", "value": "selectively enriched"}]}
{"molecule": "C#CCNC(=O)c1csc(C#Cc2ccccc2)n1", "note": "[Compound 66, 2-(phenylethynyl)-N-(prop-2-yn-1-yl)thiazole-4-carboxamide]", "values": [{"measurement": "labeling of TXRD1 in pulldown", "setting": "[9]", "value": "has the ability to label this protein"}]}
{"molecule": "Cc1onc(C(=O)N2CCN(C(c3ccc(Cl)cc3)c3ccc(Cl)cc3)CC2)c1[N+](=O)[O-]", "note": "[ML-210, (4-(bis(4-chlorophenyl)methyl)piperazin-1-yl)(5-methyl-4-nitroisoxazol-3-yl)methanone, reference compound]", "values": [{"measurement": "fold increase of IC50 in the presence of Liproxstatin-1", "setting": "[1]", "value": "about 800 fold"}]}
{"molecule": "COC(=O)c1ccc([C@H]2c3[nH]c4ccccc4c3CC(C(=O)OC)N2C(=O)CCl)cc1", "note": "(stereo partly drawn) [RSL3, reference compound]", "values": [{"measurement": "incubation time after which cells cannot be rescued by washing off the drug", "setting": "[6]", "value": "1 to 2", "unit": "h"}]}
{"molecule": "CCOc1ccccc1-n1c(C(C)N2CCN(C(=O)COc3ccc(Cl)cc3)CC2)nc2ccccc2c1=O", "note": "(stereo not drawn) [erastin]", "values": [{"measurement": "competition with probe (65) labeling", "setting": "[4]", "value": "no competition was observed"}]}
{"molecule": "(4-ethylpiperazin-1-yl)(2-ethynylthiazol-5-yl)methanone [Compound 75]", "values": [{"measurement": "IC50", "setting": "[1]; scheme 5 analogs", "value": "> 1000", "unit": "nM"}]}
{"molecule": "(E)-1-(4-(bis(4-chlorophenyl)methyl)piperazin-1-yl)-3-(2-ethynylthiazol-5-yl)prop-2-en-1-one [Compound 78]", "values": [{"measurement": "IC50", "setting": "[1]; scheme 5D", "value": 6, "unit": "nM"}]}
{"molecule": "(E)-N-(4-chlorophenyl)-3-(2-ethynylthiazol-5-yl)acrylamide [Compound 16]", "values": [{"measurement": "Fold Change", "setting": "[1]", "value": 62.64}]}
{"molecule": "N-(4-chlorophenyl)-2-ethynylthiazole-5-carboxamide [Compound 10]", "values": [{"measurement": "Fold Change", "setting": "[1]", "value": 29.40}]}
